Measurements published in US20090004683A1, “Indicator Agent for Noninflammatory Stress Response and Use Thereof” (priority 2004, published 2009).

Experiments:
IL-18 = assay: Plasma IL-18 level in restraint stress mice (ELISA); assay type: in vivo, mouse; conditions: given i.p. during restraint (Ac-YVAD-CHO 200 μM/50 μl, Z-FA-fmk 100 μM/50 μl, SB-203580 100 μg, SOD-1 20 U, DPI 30 μg)
Experimental: For restraint stress, each mouse was kept in a restrainer (a round plastic tube 27 mm in diameter) for 1, 3 or 6 hours, and IL-18 levels were measured. Regarding the analysis of IL-6, each mouse was restrained as described above, and then housed in the starting cage for 6 hours, after which a measurement was performed.
After restraint, each mouse was anesthetized with diethyl ether, and blood was drawn into an EDTA-containing tube. Plasma was separated by centrifugation at 4° C. and 10000×g for 10 minutes, and stored at −80° C. IL-18 and IL-6 were analyzed by ELISA using Quantikine™ immunoassay kit (R&D Systems) and OptEIA™ (BD-Pharmingen), respectively.
The anti-ACTH antiserum (50 μl, 1:1), dexamethasone (1 ng/50 μl PBS(−)) or the anti-IL-18 antibody (50 μl, 1:1) was administered intraperitoneally to each mouse; after 10 minutes elapsed, the animal was kept in a restraint tube for 6 hours. Synthetic ACTH (250 μg/50 μl PBS(−)) was injected to the left leg; after 6 hours elapsed, the mice were subjected to the experiment.
(§1) Each mouse was kept in a restrainer for 1 hour, and Ac-YVAD-CHO (200 μM/50 μl PBS(−)), Z-FA-fmk (100 μM/50 μl PBS(−)) and SB-203580 (100 μg/50 μl PBS(−) per mouse) were administered intraperitoneally. 1 and 3 hours after the start of restraint, SOD-1 (20 U) and DPI (30 μg) were administered intraperitoneally to the mouse, and samples were analyzed by Western blotting.

procaspase-11 = assay: Procaspase-11 protein in the adrenal of restraint stress mice (Western blotting); assay type: in vivo, mouse; conditions: given i.p. during restraint
Experimental: as §1
Western blot analysis of IL-18 and phosphorylated P38MAP kinase in adrenal tissue was performed as described below. The adrenal tissue was homogenized in an immunoprecipitation (IP) buffer solution (50 mM Tris pH 7.4, 150 mM NaCl, 0.5% NP-40 and 0.5% sodium deoxycholate) containing a protease inhibitor mixture (manufactured by Roche Diagnostics) using a Polytron homogenizer. […] The aforementioned membrane was incubated with an antibody (IL-18, phosphorylated (Thr180/Tyr182) P38 MAP kinase, caspase-1 or caspase-11), and the reacted protein was detected using an ECL plus system (manufactured by Amersham biosciences). Procaspase-11 and activated P38 MAP kinase were quantified using a Science Lab 99 image analysis system (manufactured by Fujifilm).

[1] = tested on: phosphorylated (Thr180/Tyr182) P38 MAP kinase; assay: Phosphorylated P38MAP kinase in the adrenal of restraint stress mice (Western blotting); assay type: in vivo, mouse; conditions: SOD-1 20 U i.p. 1 and 3 hours after start of restraint, FIG. 4A
Experimental: as §1
Western blot analysis of IL-18 and phosphorylated P38MAP kinase in adrenal tissue was performed as described below. The adrenal tissue was homogenized in an immunoprecipitation (IP) buffer solution (50 mM Tris pH 7.4, 150 mM NaCl, 0.5% NP-40 and 0.5% sodium deoxycholate) containing a protease inhibitor mixture (manufactured by Roche Diagnostics) using a Polytron homogenizer. The homogenate obtained (100 μg protein) was pre-clarified using protein A/G agarose (Exalpha Biologicals, Inc.), incubated with the anti-mouse IL-18 monoclonal antibody or the anti-phosphorylated (Thr180/Tyr182) P38 MAP kinase antibody and protein A/G agarose (50 μl), and centrifuged (at 13000×g for 25 minutes, 4° C.). The precipitate was boiled, and the adrenal protein was recovered, electrophoresed in 10-20% SDS-polyacrylamide gradient gel, and electrically transferred to a Hybond ECL (manufactured by Amersham) nitrocellulose membrane. The aforementioned membrane was incubated with an antibody (IL-18, phosphorylated (Thr180/Tyr182) P38 MAP kinase, caspase-1 or caspase-11), and the reacted protein was detected using an ECL plus system (manufactured by Amersham biosciences). Procaspase-11 and activated P38 MAP kinase were quantified using a Science Lab 99 image analysis system (manufactured by Fujifilm).

[2] = tested on: Primary culture human skin keratinocytes; assay: IL-18 release from keratinocytes with UV-B ray irradiation; assay type: cell-based; conditions: 100 mJ UV-B, SOD 1-20 U/ml or water-soluble vitamin E 100 nM-10 mM/ml
Experimental: Primary culture human skin keratinocytes (keratinocytes: purchased from CAMBREX Company) were cultured in a basal medium for keratinocytes contained in petri dishes for cell culture 6 cm in diameter at 1.0-2.0×10^6/dish. This was irradiated with 100 mJ of ultraviolet B rays (UV-B rays), after which the cells were cultured for 1 hour, after which the medium was collected, and the concentration of IL-18 protein in the medium was measured. Also, after the UV-B ray treatment, the cells were cultured in a medium containing SOD (1, 2.5, 5, 10, 20 U/ml), which is an active oxygen eliminator, or water-soluble vitamin E (100 nM, 1, 2.5, 5, 10 mM/ml), and the concentration of IL-18 protein in the medium was measured. In the keratinocytes, the activation and release of IL-18 by the active oxygen molecular species were observed. Furthermore, these were suppressed by SOD, which is an active oxygen eliminator, or by vitamin E, which neutralizes active oxygen, dose-dependently (FIGS. 7C and 7D).

Brain astrocytes = assay: IL-18 release from astrocytes with paraquat stimulation; assay type: cell-based, mouse; conditions: astrocytes, 100 nM paraquat 1 hour; SOD 1-20 U/ml or water-soluble vitamin E 100 nM-10 mM/ml
Experimental: Brain astrocytes isolated from the mouse neonatal brain by the method of Yang et al. (Yang P, Hernandez M R. Brain Res Brain Res Protoc. 2003 October; 12(2):67-76) were prepared at 1.5-2.0×10^6/ml. This was cultured in Dulbecco's minimum essential medium containing 100 nM of paraquat, which is an active oxygen generator, for 1 hour, after which the medium was exchanged with a paraquat-free medium. The cells were further cultured for 3 hours, after which the medium was collected, and the concentration of IL-18 protein in the medium was measured.

Abdominal macrophages = assay: IL-18 release from macrophages with paraquat stimulation; assay type: cell-based, mouse; conditions: 100 nM paraquat 15 minutes, SOD 1-20 U/ml
Experimental: Abdominal macrophages isolated from mice by the method of Hamilton et al. (Hamilton T A, Weiel J E, Adams D O., J. Immunol. 1984 May; 132(5):2285-90) were cultured in Dulbecco's minimum essential medium at 1.0-2.0×10^5/dish. The medium was exchanged with the aforementioned medium containing 100 nM of paraquat, which is an active oxygen generator, and the cells were cultured for 15 minutes, after which the medium was exchanged with a paraquat-free medium, and the cells were further cultured for 3 hours, after which the medium was collected, and the concentration of IL-18 protein in the medium was measured.

## SOD: superoxide dismutase (SOD)-1 purchased from Sigma; active oxygen eliminator
IL-18
  stress-induced increase in plasma IL-18 level: reduced
procaspase-11
  stress-induced increase in procaspase-11 protein: reduced
[1]
  inhibition of the phosphorylation of P38MAP kinase in the adrenal: about 70%
[2]
  activation and release of IL-18 into the medium: suppressed
Brain astrocytes
  activation and release of IL-18 into the medium: suppressed
Abdominal macrophages
  activation and release of IL-18 into the medium: suppressed
